Values joined by “and” are separate entries in the source; they are usually repeats but may differ in a detail not shown here. Equal entries are not always repeated.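 Cultured in 96-well plates, cells were exposed to test compound for 48 hours across five concentrations. GI50 is the concentration that inhibits growth by half. TGI is the concentration that stops growth completely.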
Legend:
Assay in all cases: NCI tumour cell line growth inhibition, 48 h
RXF-631 renal = system: RXF-631 renal
HOP-18 NSCLC = system: HOP-18 NSCLC
M19-MEL melanoma = system: M19-MEL melanoma
DMS 273 small cell lung = system: DMS 273 small cell lung
SNB-78 CNS = system: SNB-78 CNS
KM20L2 colon = system: KM20L2 colon
MDA-N = system: MDA-N
NCI/ADR-RES ovarian = system: NCI/ADR-RES ovarian
DU-145 prostate = system: DU-145 prostate
P388 leukemia = system: P388 leukemia
SN12K1 renal = system: SN12K1 renal
P388/ADR leukemia = system: P388/ADR leukemia

SMILES	TGI (RXF-631 renal)	TGI (HOP-18 NSCLC)	TGI (M19-MEL melanoma)	TGI (DMS 273 small cell lung)	TGI (SNB-78 CNS)	TGI (KM20L2 colon)	further results
CC(=O)OCC1OC(n2c(-c3ccc(N)cc3)cc(-c3ccco3)c(C#N)c2=O)C(OC(C)=O)C(OC(C)=O)C1OC(C)=O (stereo not drawn)	> 50 µM	> 50 µM	> 50 µM	> 50 µM	> 50 µM	> 50 µM	
CC(=O)OC1CC[C@@]2(C)C(CC(OC3OC(CO)C(O)C(O)C3O)[C@]3(C)C2CCC24CC23CC[C@H]4C(C)CC(O)[C@@H](O)C(C)(C)O)C1(C)C (stereo partly drawn)	> 50 µM	41 µM	16 µM	> 50 µM	> 5 µM	> 50 µM	
CC(C)(C)NC(=O)C12C3C4C1C1C2C3C41I (stereo not drawn)	> 100 µM		> 100 µM	> 100 µM	> 100 µM	> 100 µM	
C[N+](C)(C)CC(=O)NC(=O)N/N=C\C(CC#N)CN(Cc1ccccc1)Cc1ccccc1 (stereo not drawn)	> 100 µM	> 100 µM	> 100 µM	> 100 µM	> 100 µM	> 100 µM	
O=C1/C=C(/c2ccc(O)cc2)[C@H](O)Cc2ccc(OC3OC(CO)C(O)C(O)C3O)cc2O1 (stereo partly drawn) (tested in a mixture with another compound)	> 100 µM		> 100 µM		> 100 µM	> 100 µM	
COc1ccc(NC(=O)CC(=O)n2nc(-c3ccccc3)c(N=Nc3ccc(C)cc3)c2-c2ccccc2)cc1	> 100 µM	> 78.3 µM	> 100 µM	> 100 µM	61.2 µM	> 100 µM	TGI (MDA-N): > 100 µM; TGI (NCI/ADR-RES ovarian): > 61 µM; TGI (DU-145 prostate): > 100 µM
NC(N)=Nc1nc2cc(N)ccc2o1	> 100 µM	> 100 µM	> 100 µM		> 100 µM	> 100 µM	
Cc1cc(C)c(-c2noc(-c3ccc(Cl)cc3)c2C2=NCCN2)c(C)c1	> 100 µM	> 100 µM	> 100 µM		58.3 µM	54 µM	
O=C(N/C(=C\c1cc(Cl)ccc1Cl)c1nc2ccccc2[nH]1)c1ccccc1	> 100 µM		> 100 µM		> 100 µM	> 100 µM	
COc1ccc(-c2cc(-c3ccco3)c(C#N)c(=O)n2C2OC(OC(=O)c3ccccc3)C(OC(=O)c3ccccc3)C2OC(=O)c2ccccc2)cc1 (stereo not drawn)	> 100 µM	> 100 µM	> 100 µM	> 100 µM	> 100 µM	> 100 µM	
Nc1ncnc2c1ncn2C1OC(CO)C(O)C1O (stereo not drawn)		> 399 µM	> 450 µM	> 450 µM	> 450 µM	> 450 µM	TGI (P388 leukemia): 111 µM; TGI (MDA-N): > 100 µM; GI50 (NCI/ADR-RES ovarian): 5.06 µM; GI50 (DU-145 prostate): 3.8 µM; TGI (DU-145 prostate): 82.4 µM and 31.4 µM; TGI (SN12K1 renal): > 450 µM; TGI (P388/ADR leukemia): 144 µM
COC(=O)c1ccc2n[se]nc2c1	> 100 µM	> 100 µM	> 100 µM	> 100 µM	> 100 µM	> 100 µM	
COc1cc(C=C2C(=O)OC(C)(C)OC2=O)cc(OC)c1OC		> 100 µM	> 100 µM	> 100 µM	> 100 µM	> 100 µM	
O=c1c2ccccc2oc2nccnc12	> 100 µM	> 100 µM	> 100 µM	> 100 µM	> 100 µM	> 100 µM	
O=C(CC1Sc2ccccc2NC1=O)Nc1ccc([N+](=O)[O-])cc1[N+](=O)[O-] (stereo not drawn)	41.4 µM	46 µM	30.3 µM		51.7 µM	79.5 µM	
N#CC1(Cc2ccccc2Cl)c2ccccc2C=CN1C(=O)c1ccccc1 (stereo not drawn)		> 100 µM	> 100 µM	> 100 µM	> 100 µM	> 100 µM	
COC(=O)c1nc(N)[nH]c(=O)c1-c1ccc(Cl)cc1	> 100 µM		> 100 µM	> 100 µM	> 100 µM	> 100 µM	
COc1ccc(/C=N\N2C(=O)Cc3ccccc32)cc1		> 100 µM	> 100 µM	> 100 µM	> 100 µM	> 100 µM	
COc1cc2c3c(c1OC)C1(C=CC(=O)C=C1)CC3N(C(=O)OC(C)(C)C(Cl)(Cl)Cl)CC2 (stereo not drawn)		50.4 µM	24.3 µM	24.5 µM	33.8 µM	25.2 µM	
Clc1cc(Cl)c2n[se]nc2c1	> 100 µM	> 100 µM	> 100 µM	> 100 µM	> 100 µM	> 100 µM	
COC1=C(C(=O)OC(C)(C)C)C23CCCCC2(C(C(=O)OC(C)(C)C)=C(OC)C3C(=O)OC(C)(C)C)C1C(=O)OC(C)(C)C (stereo not drawn)	35.3 µM	> 100 µM	> 100 µM	> 100 µM	> 100 µM	> 100 µM	
COC(=O)CC[C@@H](NC(=O)C(C)NC(=O)COC1C(O)C(COC(=O)CCCCCCCCCCNC(=O)c2ccc([N+](=O)[O-])c3[nH]c4cc(Br)ccc4c(=O)c23)OC(OCc2ccccc2)C1NC(C)=O)C(N)=O (stereo partly drawn)		> 100 µM	> 100 µM	> 100 µM	> 100 µM	> 100 µM	
O=C(Nc1ccc(Cl)cc1Cl)c1c/c(=N\O)c2ccc(O)cc2o1	> 100 µM	> 100 µM	> 100 µM		> 100 µM	> 100 µM	
CC1=NN(C(=O)CC(=O)Nc2ccccc2)C(=O)C1N=Nc1ccc(S(N)(=O)=O)cc1 (stereo not drawn)	> 100 µM	> 100 µM		> 100 µM	> 100 µM	> 100 µM	
Cc1cccc2c1NC(c1c(C)[nH]c3ccccc13)C2 (stereo not drawn)	> 100 µM	> 100 µM	> 100 µM			> 100 µM	
COc1ccc2c(c1)C(CCN)C(=O)N2 (stereo not drawn)	> 100 µM	> 100 µM	> 100 µM	> 100 µM	> 100 µM	> 100 µM	
Nc1ccc(Cl)cc1.Nc1ccc(Cl)cc1.Nc1ccc(Cl)cc1.O=C([O-])C(=O)[O-].O=C([O-])C(=O)[O-].[H+].[Ru+5]	> 100 µM	> 100 µM	2.15 µM	> 100 µM	> 100 µM	> 100 µM	GI50 (HOP-18 NSCLC): > 100 µM; GI50 (M19-MEL melanoma): 0.0537 µM; GI50 (DMS 273 small cell lung): 0.087 µM; GI50 (SNB-78 CNS): > 81.9 µM; GI50 (KM20L2 colon): > 100 µM

Source: PubChem BioAssay (NCI)
